Residues, ends and D or L forms follow the SMILES beside them.
What was measured:
SmDPP7 = assay: Inhibition assay using dipeptide library, Tyr-Tyr-MCA hydrolysis; assay type: biochemical, Stenotrophomonas maltophilia; settings: Xaa-Tyr as competitive inhibitor; substrate 200 µM Tyr-Tyr-MCA; pH 7.0, 298 K; Ki from IC50 by Cheng-Prusoff
Method: Figure 1 Effect of Xaa-Tyr dipeptides on the hydrolytic activity of SmDPP7 towards synthetic substrate Tyr-Tyr-MCA. Inhibition assay was performed as described in “Materials and methods”. Residual activity was measured under conditions where 200 µM Xaa-Tyr dipeptide and 200 µM Tyr-Tyr-MCA, synthetic substrate were added into the reaction solution. […] The standard deviations were obtained from three independent experiments.
(§1) The dipeptide library was purchased from AnaSpec (Fremont, CA, US). Ile-Tyr and Arg-Tyr were synthesized by Eurofins Genomics (Tokyo, Japan). Cys-Tyr and Cys-Asp could not be purchased commercially. Different concentrations (3.13, 6.25, 12.5, 25, 50, 100, and 200 µM) of dipeptides as the inhibitor and 200 µM Tyr-Tyr-MCA (GenScript, NJ, US) as the substrate for DPP7 were added into a reaction buffer consisting of 50 mM sodium phosphate buffer pH 7.0, 5 mM EDTA and 0.005% Tween 20. For DPP11s, different concentrations (1.56, 3.13, 6.25, 12.5, 25, 50, and 100 µM) of dipeptides as the inhibitor and 100 µM Leu-Asp-MCA (Peptide Institute, Osaka, Japan) as the substrate were used. The enzyme reaction was performed at 298 K for 20 min and standard deviations were calculated from three independent experiments. Half-maximal inhibitory concentration (IC50) values were determined by fitting to a sigmoid curve (4-parameter logistic curve) using ImageJ software[35] and inhibition constants (Ki) were calculated using the Cheng-Prusoff Equation[36]. The fluorescence intensity of the released MCA was measured with the same method of determination of kinetics parameters toward dipeptidyl MCA.

PgDPP11 = PgDPP11 (Porphyromonas gingivalis, UniProt B2RID1); assay: biochemical
Chain of PgDPP11 (B2RID1 22-720): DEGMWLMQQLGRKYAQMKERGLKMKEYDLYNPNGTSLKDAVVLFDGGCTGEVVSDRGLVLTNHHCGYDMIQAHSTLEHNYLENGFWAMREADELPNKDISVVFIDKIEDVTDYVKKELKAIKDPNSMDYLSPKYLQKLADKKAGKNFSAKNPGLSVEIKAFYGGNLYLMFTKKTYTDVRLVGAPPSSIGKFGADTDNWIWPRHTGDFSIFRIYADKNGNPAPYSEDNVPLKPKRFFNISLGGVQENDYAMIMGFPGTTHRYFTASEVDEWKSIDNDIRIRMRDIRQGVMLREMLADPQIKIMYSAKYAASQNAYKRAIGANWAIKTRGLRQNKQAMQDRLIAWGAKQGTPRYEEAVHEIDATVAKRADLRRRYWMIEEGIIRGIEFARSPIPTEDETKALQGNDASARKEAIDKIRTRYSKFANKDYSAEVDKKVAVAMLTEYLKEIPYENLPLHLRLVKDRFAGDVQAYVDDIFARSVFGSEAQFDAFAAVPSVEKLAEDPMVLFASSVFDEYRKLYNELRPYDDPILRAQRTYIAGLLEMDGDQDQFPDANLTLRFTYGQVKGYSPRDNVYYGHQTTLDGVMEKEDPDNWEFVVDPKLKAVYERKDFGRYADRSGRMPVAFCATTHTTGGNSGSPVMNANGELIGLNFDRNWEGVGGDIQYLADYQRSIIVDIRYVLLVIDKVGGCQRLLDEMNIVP
Method: Figure 2 Correlation diagrams between the hydrophobicity index (H.I.) of P2-amino acid and residual DPP activities of S46 peptidases. (a) SmDPP7. The outlier dipeptides Asn-Tyr and Trp-Tyr are coloured in red and blue, respectively (see text). (b) PgDPP7. Tyr-Tyr-MCA hydrolysis of PgDPP7 was inhibited by Xaa-Tyr dipeptide. Residual activity was measured under conditions where 200 µM dipeptides and 200 µM Tyr-Tyr-MCA were added into the reaction solution. (c) DPP11 from S. maltophilia (SmDPP11). (d) PgDPP11. For DPP11s, Leu-Asp-MCA hydrolysis was inhibited by Xaa-Asp dipeptide. Residual activity was measured under conditions where 100 µM dipeptides and 100 µM Leu-Asp-MCA were added into the reaction solution. The hydrophobicity indices of the amino acids were adopted from Sereda et al., 1994 and Mohera et al. 1995[25],[26]. R is the correlation coefficient. The standard deviations were obtained from three independent experiments.
as §1

[1] = of the amino acid; ref 25,26 (Sereda et al. and Mohera et al.); cited from earlier work

In the case of Glu-Tyr, the Ki (SmDPP7) is reported as > 58 µM.

In the case of Gly-Tyr, the Ki (SmDPP7) is reported as > 58 µM.

In the case of Pro-Tyr, the Ki (SmDPP7) is reported as > 58 µM.

For NCCCC[C@H](N)C(=O)N[C@@H](CC(=O)O)C(=O)O [Lys-Asp] (H-Lys-Asp-OH), the Ki (PgDPP11) was > 5.11 µM.

In the case of C[C@H](N)C(=O)N[C@@H](CC(=O)O)C(=O)O [Ala-Asp] (H-Ala-Asp-OH), the Ki (PgDPP11) is reported as > 5.11 µM.

In the case of C[C@@H](O)[C@H](N)C(=O)N[C@@H](CC(=O)O)C(=O)O [Thr-Asp] (H-Thr-Asp-OH), the Ki (PgDPP11) is reported as > 5.11 µM.

For NC(=O)C[C@H](N)C(=O)N[C@@H](CC(=O)O)C(=O)O [Asn-Asp] (H-Asn-Asp-OH), the Ki (PgDPP11) was 4.06 ± 0.16 µM.

In the case of CC(C)C[C@H](N)C(=O)N[C@@H](CC(=O)O)C(=O)O [Leu-Asp] (H-Leu-Asp-OH), the Ki (PgDPP11) is reported as 3.35 ± 0.23 µM.

For Asp-Tyr, the Ki (SmDPP7) was > 58 µM.

For CC[C@H](C)[C@H](N)C(=O)N[C@@H](CC(=O)O)C(=O)O [Ile-Asp] (H-Ile-Asp-OH), the Ki (PgDPP11) was > 5.11 µM.

For N[C@@H](Cc1c[nH]c2ccccc12)C(=O)O [Trp], the “H.I. of P2 aa (hydrophobicity index)” value [1] is listed as 97.

In the case of N[C@@H](Cc1c[nH]cn1)C(=O)O [His], the “H.I. of P2 aa (hydrophobicity index)” value [1] is given as 8.

In the case of CC(C)[C@H](N)C(=O)O [Val], the “H.I. of P2 aa (hydrophobicity index)” value [1] is listed as 76.

In the case of C[C@H](N)C(=O)O [Ala], the “H.I. of P2 aa (hydrophobicity index)” value [1] is given as 41.

With O=C(O)C[C@H](NC(=O)[C@@H]1CCCN1)C(=O)O [Pro-Asp] (H-Pro-Asp-OH) the Ki (PgDPP11) was > 5.11 µM.

For N=C(N)NCCC[C@H](N)C(=O)N[C@@H](CC(=O)O)C(=O)O [Arg-Asp] (H-Arg-Asp-OH), the Ki (PgDPP11) was > 5.11 µM.

In the case of N[C@@H](CCC(=O)O)C(=O)N[C@@H](CC(=O)O)C(=O)O [Glu-Asp] (H-Glu-Asp-OH), the Ki (PgDPP11) is reported as > 5.11 µM.

In the case of CC[C@H](C)[C@H](N)C(=O)O [Ile], the “H.I. of P2 aa (hydrophobicity index)” value [1] is given as 99.

For N[C@@H](Cc1ccc(O)cc1)C(=O)O [Tyr], the “H.I. of P2 aa (hydrophobicity index)” value [1] is given as 63.

Reference: publication PMC8041751, “Structural basis for an exceptionally strong preference for asparagine residue at the S2 subsite of Stenotrophomonas maltophilia dipeptidyl peptidase 7” (Scientific Reports, 2021)
